We go through 4 molecules from patent US20060040883A1, “Methods for treating cancer using anti-Wnt2 monoclonal antibodies and siRNA” (The Regents of the University of California, priority 2004, published 2006).

The subject of one data set is MS1 mesothelioma cells. The data set is described as follows: Proliferation assay (tetrazolium conversion) in MS1 cells. The data set is classed as cell-based, human. The settings on record: three days. On the procedure: Alimta® (MTA) was supplied by Eli Lilly (Indianapolis, Ind.). Alimta® was diluted in sterile physiological solution at a concentration of 10 mg/ml. The stock was divided into aliquots, stored at −80° C., and diluted in culture medium before each experiment. Wnt2 antibody was stored at 4° C. and used as previously described. Cell proliferation was determined by measuring metabolic activity of tetrazolium conversion (Cell Titer 96 assay, Promega, Madison, Wis.). Briefly, 5,000 cells were plated per well in a 96-well plate and culture medium containing increasing concentrations of both drugs was added. Plates were incubated at 37° C. for 72 hours in a CO2 incubator. Then a solubilization/stop solution was added and the absorbance was recorded with a […] at a wavelength of 570 nm. Each experiment was repeated at least 3 times in triplicate.
The effects of the anti-Wnt2 monoclonal antibody on cell proliferation were assessed and compared with the effects of Alimta®. Alimta® (LY231514, MTA, pemetrexed) is a novel multifunctional antifolate antimetabolite (Hanauske Lung Cancer 45 Suppl 1:S121-4 (2004)). […] Alimta® is now considered a standard in the treatment of surgically non-amenable mesothelioma. […] Three days later the cell proliferation was assessed by measuring the metabolic activity of cellular enzyme (here the tetrazolium conversion).

In the next data set the test system is JNK. The data set is described as follows: JNK activity. The settings on record: inhibition of Dvl by blocking CK-2 activity. Format: cell-based. The source says: Through frizzled receptor and dishevelled protein, Wnt signal activates two distinct pathways: the canonical pathway (i.e., β catenin pathway) and the JNK pathway. Dishevelled protein has three highly conserved domains, DIX, PDZ, and DEP. Among them, the DIX and PDZ domains are necessary for the canonical signaling pathway while the DEP domain is important for the activation of JNK pathway. […] Most likely, the activation of JNK after anti-Wnt antibody treatment is through Dvl.

The test system of a further data set is A549, LOX and FEMX. The data set can be described thus: Specificity control with blocking peptide (apoptosis by flow cytometry). The data set is classed as cell-based, human. The settings on record: 300 μg/ml for 72 hrs, alone. The source says: Cells were harvested by trypsinization and processed for determination of cell surface annexin-V and propodium iodide (PI) contents, according to the manufacture's protocol (Annexin V FITC Apoptosis Detection Kit (Oncogene, Cambridge, Mass.); Apotarget (BioSource International)). With the use of Annexin-V-PI double staining regime, three populations of cells are distinguishable in two color flow cytometry: (a) non-apoptotic cells: annexin-V and PI negative; (b) early apoptotic cells with exposed phosphatidylserine but intact cell membranes bound to Annexin V-FITC but excluded propidium iodide; and (c) cells in necrotic or late apoptotic stages were labeled with both Annexin V-FITC and propidium iodide. Then stained cells were immediately analyzed by flow cytometry (FACScan; Decton Dickinson, Franklin Lake, N.J.). TUNEL staining of tumor tissue samples harvested from in vivo experiment was performed using ApopTag Peroxidase In Situ Oligo Ligation Apoptosis Detection Kit (Chemicon International, Temecula, Calif.) according to the manufacturer's protocol.
As a specificity control, induction of apoptosis was examined by using monoclonal Wnt2 antibody blocked by overnight pre-incubation with blocking peptide (30-fold over the antibody) in A549, LOX and FEMX. […] Same dose of blocking peptide (300 μg/ml for 72 hrs) alone had no effect on cell viability.

The test system of data set [1] is hepatoma cell lines HepG2 and Hep3B. The data set is described as follows: Cytotoxic effects in hepatoma cell lines. The data set is classed as cell-based. The note with it: data not shown.

Regarding `Nc1nc2[nH]cc(CCc3ccc(C(=O)N[C@@H](CCC(=O)O)C(=O)O)cc3)c2c(=O)[nH]1` [Alimta®, pemetrexed], the entries for the “decrease in cell proliferation” value in the data set on MS1 mesothelioma cells (1 μg/ml) and with MS1 mesothelioma cells (10 μg/ml) were “about 41.9%” and “about 42.9%”, respectively. In the case of `O=c1cc(-c2ccc(O)cc2)oc2cc(O)cc(O)c12` [Apigenin, reference compound], the JNK activity result in the data set on JNK is “increased JNK activity”. In the case of “blocking peptide: peptide pre-incubated with the anti-Wnt2 antibody (30-fold over the antibody) to block it (SSQRQLCHRHPDVMR; UniProt P09544 49-63, looked up, fragment) [reference compound]”, the cell viability result in the data set on A549, LOX and FEMX is on record as “no effect”.

B1: anti-Wnt2 monoclonal antibody: mouse monoclonal IgG1 raised against residues 49-63 of human Wnt2; 17F7.G7 was used in the experiments described (protein)
chain: SWWYMRATGGSSRVMCDNVPGLVSSQRQLCHRHPDVMRAISQGVAEWTAECQHQFRQHRWNCNTLDRDHSLFGRVLLRSSRESAFVYAISSAGVVFAITRACSQGEVKSCSCDPKKMGSAKDSKGIFDWGGCSDNIDYGIKFARAFVDAKERKGKDARALMNLHNNRAGRKAVKRFLKQECKCHGVSGSCTLRTCWLAMADFRKTGDYLWRKYNGAIQVVMNQDGTGFTVANERFKKPTKNDLVYFENSPDYCIRDREAGSLGTAGRVCNLTSRGMDSCEVMCCGRGYDTSHVTRMTKCGCKFHWCCAVRCQDCLEALDVHTCKAPKNADWTTAT
For the molecule B1, the cytotoxic effects result in data set [1] was “cytotoxic effects”.
